Values of other authors as cited in patent US20200018753A1, “NON-INVASIVE BIOMARKER TO IDENTIFY SUBJECT AT RISK OF PRETERM DELIVERY” (NYU Winthrop Hospital, priority 2012, published 2020).

Test system: Prostaglandin D2 formation
Conditions: IL-1β-stimulated SK-N-SH neuronal cells; presumably by inhibiting cyclooxygenase (COX), especially COX-2

Oc1ccc(C=Cc2cc(O)cc(O)c2)cc1 [Resveratrol]
formation of Prostaglandin D2: reduce formation of Prostaglandin D2
